Data from ChEMBL document CHEMBL5465560, “Selectivity Literature for EUbOPEN Chemogenomic Library” (2024).

What was measured:
[1] = target: Interferon-induced, double-stranded RNA-activated protein kinase (Homo sapiens) (UniProt P19525); assay: Selectivity interaction (Kinase panel (KiNativ target engagement assay in Jurkat cells)) EUB0001635a EIF2AK2; assay type: cell-based; conditions: Selectivity number of off-targets 0.0, Selectivity number of targets 233.0, Source Knowledge https://www.sciencedirect.com/science/article/pii/S2451945619300674?via%3Dihub, at 1 µM
[2] = target: Serine/threonine-protein kinase Nek6 (Homo sapiens) (UniProt Q9HC98); assay: Selectivity interaction (KinomeScan (DiscoverX)) EUB0000695a NEK6; conditions: at 100 nM
[3] = target: Death-associated protein kinase 3 (Homo sapiens) (UniProt O43293); assay: Selectivity interaction (KinomeScan (DiscoverX)) EUB0001079a DAPK3; conditions: at 1 µM
[4] = tested on: Mast/stem cell growth factor receptor Kit (Homo sapiens), P10721 [A829P]; assay: (§1) Selectivity interaction (LanthaScreen Eu Kinase Binding Assay) EUB0001632a KIT; conditions: at 10 µM
[5] = tested on: Mast/stem cell growth factor receptor Kit (Homo sapiens), P10721 [D816H]; assay: as §1; conditions: at 10 µM
[6] = tested on: Mast/stem cell growth factor receptor Kit (Homo sapiens), P10721 [D816V]; assay: as §1; conditions: at 10 µM
[7] = tested on: Mast/stem cell growth factor receptor Kit (Homo sapiens), P10721 [D820E]; assay: as §1; conditions: at 10 µM
[8] = tested on: Mast/stem cell growth factor receptor Kit (Homo sapiens), P10721 [N822K]; assay: as §1; conditions: at 10 µM
[9] = tested on: Mast/stem cell growth factor receptor Kit (Homo sapiens), P10721 [T670E]; assay: as §1; conditions: at 10 µM
[10] = tested on: Mast/stem cell growth factor receptor Kit (Homo sapiens), P10721 [V559D,T670I]; assay: as §1; conditions: at 10 µM
[11] = tested on: Mast/stem cell growth factor receptor Kit (Homo sapiens), P10721 [V654A]; assay: as §1; conditions: at 10 µM
[12] = tested on: Mast/stem cell growth factor receptor Kit (Homo sapiens), P10721 [Y823D]; assay: as §1; conditions: at 10 µM
[13] = target: Nuclear body protein SP140 (Homo sapiens) (UniProt Q13342); assay: Selectivity interaction (Bromodomain panel (DSF asssay)) EUB0000270b SP140
[14] = target: Serine/threonine-protein kinase B-raf (Homo sapiens) (UniProt P15056); assay: (§2) Selectivity interaction (ProQinase) EUB0000171b BRAF
[15] = tested on: Serine/threonine-protein kinase B-raf (Homo sapiens), P15056 [V600E]; assay: as §2
[16] = target: Calcium/calmodulin-dependent protein kinase type II subunit beta (Homo sapiens) (UniProt Q13554); assay: Selectivity interaction (KinomeScan (DiscoverX)) EUB0001619a CAMK2B; conditions: at 1 µM
[17] = target: T1, Receptor-interacting serine/threonine-protein kinase 4 (Homo sapiens) (UniProt P57078); assay: Selectivity interaction (KinomeScan (DiscoverX)) EUB0000618a RIPK4; conditions: at 10 µM
T1 sequence (whole entry): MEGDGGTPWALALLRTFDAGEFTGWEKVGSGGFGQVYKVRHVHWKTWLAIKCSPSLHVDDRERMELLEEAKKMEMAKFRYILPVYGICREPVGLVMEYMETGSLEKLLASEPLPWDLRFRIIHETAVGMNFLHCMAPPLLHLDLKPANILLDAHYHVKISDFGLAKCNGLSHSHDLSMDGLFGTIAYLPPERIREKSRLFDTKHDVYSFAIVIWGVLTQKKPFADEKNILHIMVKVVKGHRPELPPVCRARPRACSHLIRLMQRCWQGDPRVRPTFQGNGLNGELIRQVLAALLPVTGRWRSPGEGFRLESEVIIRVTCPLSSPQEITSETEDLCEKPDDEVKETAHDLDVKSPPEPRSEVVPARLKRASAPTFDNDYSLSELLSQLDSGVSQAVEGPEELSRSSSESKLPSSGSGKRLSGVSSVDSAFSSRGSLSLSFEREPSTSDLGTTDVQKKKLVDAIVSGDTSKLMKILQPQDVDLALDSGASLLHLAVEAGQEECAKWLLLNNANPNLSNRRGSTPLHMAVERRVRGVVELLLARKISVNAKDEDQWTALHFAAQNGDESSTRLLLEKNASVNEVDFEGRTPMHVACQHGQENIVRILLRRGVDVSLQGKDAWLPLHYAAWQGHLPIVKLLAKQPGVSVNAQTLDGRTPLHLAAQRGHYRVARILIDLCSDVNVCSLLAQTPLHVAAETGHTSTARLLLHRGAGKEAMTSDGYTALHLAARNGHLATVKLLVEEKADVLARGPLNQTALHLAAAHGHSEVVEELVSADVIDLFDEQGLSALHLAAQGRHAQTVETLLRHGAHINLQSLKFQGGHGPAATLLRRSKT

[18] = target: Serine/threonine-protein kinase/endoribonuclease IRE1 (Homo sapiens) (UniProt O75460); assay: Selectivity interaction (KinomeScan (DiscoverX)) EUB0000655a ERN1; conditions: at 10 µM
[19] = target: T2, Serine/threonine-protein kinase DCLK1 (Homo sapiens) (UniProt O15075); conditions: at 10 µM
T2 sequence (whole entry): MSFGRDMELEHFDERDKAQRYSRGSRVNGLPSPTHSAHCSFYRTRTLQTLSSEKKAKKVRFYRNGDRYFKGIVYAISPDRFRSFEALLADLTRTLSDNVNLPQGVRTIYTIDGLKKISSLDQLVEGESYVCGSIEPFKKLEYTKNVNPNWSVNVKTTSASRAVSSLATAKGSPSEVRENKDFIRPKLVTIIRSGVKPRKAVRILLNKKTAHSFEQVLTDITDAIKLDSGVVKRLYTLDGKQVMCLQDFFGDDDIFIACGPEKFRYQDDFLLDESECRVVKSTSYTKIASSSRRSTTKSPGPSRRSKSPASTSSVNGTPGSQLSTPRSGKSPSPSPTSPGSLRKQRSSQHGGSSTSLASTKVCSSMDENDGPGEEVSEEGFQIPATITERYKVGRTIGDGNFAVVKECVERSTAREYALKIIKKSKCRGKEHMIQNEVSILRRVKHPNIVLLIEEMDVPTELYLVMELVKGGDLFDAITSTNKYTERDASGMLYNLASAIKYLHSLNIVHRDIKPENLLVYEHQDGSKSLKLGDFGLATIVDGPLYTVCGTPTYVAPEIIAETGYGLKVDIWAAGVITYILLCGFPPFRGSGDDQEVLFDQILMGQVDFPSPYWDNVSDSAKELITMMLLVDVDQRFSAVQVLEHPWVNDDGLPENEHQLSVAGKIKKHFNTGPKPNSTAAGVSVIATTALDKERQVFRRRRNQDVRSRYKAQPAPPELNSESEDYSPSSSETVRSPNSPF

[20] = target: MAP/microtubule affinity-regulating kinase 3 (Homo sapiens) (UniProt P27448); assay: Selectivity interaction (KinomeScan (DiscoverX)) EUB0000092b MARK3; conditions: at 10 µM
Chain of MAP/microtubule affinity-regulating kinase 3 (Homo sapiens) (P27448 whole entry, looked up): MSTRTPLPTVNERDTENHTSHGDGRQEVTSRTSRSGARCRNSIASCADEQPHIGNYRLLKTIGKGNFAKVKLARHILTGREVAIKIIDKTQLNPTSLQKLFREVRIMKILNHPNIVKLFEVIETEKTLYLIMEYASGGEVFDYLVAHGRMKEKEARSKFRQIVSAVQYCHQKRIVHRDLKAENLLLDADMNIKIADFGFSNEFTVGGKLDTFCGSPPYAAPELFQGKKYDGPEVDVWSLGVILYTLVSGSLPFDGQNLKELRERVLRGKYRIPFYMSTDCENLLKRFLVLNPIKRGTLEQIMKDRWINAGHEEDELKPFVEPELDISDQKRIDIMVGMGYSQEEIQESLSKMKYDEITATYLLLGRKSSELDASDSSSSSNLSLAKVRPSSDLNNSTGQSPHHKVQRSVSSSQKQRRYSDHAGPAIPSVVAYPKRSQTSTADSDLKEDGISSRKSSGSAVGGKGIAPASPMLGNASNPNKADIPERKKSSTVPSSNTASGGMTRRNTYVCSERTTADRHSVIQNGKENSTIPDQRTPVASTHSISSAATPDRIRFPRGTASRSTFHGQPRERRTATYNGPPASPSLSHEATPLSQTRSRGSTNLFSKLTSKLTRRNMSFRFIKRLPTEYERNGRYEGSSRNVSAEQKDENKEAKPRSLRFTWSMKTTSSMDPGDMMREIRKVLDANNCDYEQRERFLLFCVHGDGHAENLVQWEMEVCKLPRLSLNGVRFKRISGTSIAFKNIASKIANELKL

Chain of Serine/threonine-protein kinase B-raf (Homo sapiens), P15056 [V600E] (P15056 whole entry V600E): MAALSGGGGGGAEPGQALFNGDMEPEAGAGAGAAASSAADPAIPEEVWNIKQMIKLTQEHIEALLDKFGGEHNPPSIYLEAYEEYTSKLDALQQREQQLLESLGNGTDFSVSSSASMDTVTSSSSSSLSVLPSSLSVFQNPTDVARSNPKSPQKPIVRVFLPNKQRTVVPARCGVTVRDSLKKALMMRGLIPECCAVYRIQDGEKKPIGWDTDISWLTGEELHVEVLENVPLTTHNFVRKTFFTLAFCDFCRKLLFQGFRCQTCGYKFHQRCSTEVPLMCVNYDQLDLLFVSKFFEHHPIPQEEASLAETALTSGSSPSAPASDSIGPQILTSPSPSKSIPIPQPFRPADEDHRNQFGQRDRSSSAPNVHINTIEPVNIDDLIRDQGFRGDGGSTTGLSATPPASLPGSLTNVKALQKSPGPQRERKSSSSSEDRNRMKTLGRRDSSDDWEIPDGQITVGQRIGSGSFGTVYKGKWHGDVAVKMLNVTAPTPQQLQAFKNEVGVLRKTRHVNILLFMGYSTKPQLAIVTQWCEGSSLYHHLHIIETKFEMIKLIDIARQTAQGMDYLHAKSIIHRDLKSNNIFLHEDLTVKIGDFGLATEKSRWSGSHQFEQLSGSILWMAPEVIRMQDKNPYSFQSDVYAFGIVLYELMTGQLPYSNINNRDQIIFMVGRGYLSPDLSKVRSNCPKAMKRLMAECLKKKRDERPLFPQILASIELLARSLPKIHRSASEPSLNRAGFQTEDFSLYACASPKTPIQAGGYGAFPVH
Chain of Serine/threonine-protein kinase B-raf (Homo sapiens) (P15056 whole entry): as the sequence (P15056 whole entry V600E) above, with E600V counted along it
Chain of Mast/stem cell growth factor receptor Kit (Homo sapiens), P10721 [N822K] (P10721 whole entry N822K): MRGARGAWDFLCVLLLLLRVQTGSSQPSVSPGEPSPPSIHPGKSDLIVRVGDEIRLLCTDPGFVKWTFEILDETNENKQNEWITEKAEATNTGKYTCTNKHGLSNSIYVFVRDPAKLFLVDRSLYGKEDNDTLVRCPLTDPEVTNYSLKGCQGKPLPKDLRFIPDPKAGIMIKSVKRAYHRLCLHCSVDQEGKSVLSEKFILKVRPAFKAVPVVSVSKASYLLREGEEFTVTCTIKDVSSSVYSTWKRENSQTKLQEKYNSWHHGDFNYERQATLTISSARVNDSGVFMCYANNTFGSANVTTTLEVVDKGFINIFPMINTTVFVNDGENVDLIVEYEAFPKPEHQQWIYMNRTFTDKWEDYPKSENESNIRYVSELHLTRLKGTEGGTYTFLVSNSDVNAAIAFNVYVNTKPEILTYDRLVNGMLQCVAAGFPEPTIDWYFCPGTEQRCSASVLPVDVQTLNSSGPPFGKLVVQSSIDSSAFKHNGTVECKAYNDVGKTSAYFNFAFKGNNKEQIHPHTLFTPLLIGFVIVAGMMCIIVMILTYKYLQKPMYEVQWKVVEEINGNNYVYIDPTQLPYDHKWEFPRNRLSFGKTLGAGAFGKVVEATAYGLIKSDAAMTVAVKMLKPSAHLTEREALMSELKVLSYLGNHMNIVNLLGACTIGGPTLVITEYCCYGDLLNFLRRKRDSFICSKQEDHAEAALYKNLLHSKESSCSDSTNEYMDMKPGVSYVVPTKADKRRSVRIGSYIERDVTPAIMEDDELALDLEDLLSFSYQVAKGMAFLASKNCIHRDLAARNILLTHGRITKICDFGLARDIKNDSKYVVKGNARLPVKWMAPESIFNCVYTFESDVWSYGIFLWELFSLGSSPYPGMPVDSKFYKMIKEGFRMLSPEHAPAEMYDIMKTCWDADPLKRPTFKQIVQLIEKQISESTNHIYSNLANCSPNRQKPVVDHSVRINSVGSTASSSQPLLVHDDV
Chain of Serine/threonine-protein kinase Nek6 (Homo sapiens) (Q9HC98 whole entry): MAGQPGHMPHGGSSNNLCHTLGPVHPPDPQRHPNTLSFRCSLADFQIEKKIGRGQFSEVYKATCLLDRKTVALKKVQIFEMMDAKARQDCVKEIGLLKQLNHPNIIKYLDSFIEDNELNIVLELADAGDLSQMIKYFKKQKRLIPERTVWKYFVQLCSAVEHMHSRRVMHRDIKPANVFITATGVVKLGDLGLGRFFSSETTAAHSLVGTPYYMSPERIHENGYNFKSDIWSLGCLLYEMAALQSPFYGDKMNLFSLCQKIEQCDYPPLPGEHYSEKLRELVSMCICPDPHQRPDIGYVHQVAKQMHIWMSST
Chain of Mast/stem cell growth factor receptor Kit (Homo sapiens), P10721 [D816V] (P10721 whole entry D816V): as the sequence (P10721 whole entry N822K) above, with D816V, K822N counted along it
Chain of Death-associated protein kinase 3 (Homo sapiens) (O43293 whole entry, looked up): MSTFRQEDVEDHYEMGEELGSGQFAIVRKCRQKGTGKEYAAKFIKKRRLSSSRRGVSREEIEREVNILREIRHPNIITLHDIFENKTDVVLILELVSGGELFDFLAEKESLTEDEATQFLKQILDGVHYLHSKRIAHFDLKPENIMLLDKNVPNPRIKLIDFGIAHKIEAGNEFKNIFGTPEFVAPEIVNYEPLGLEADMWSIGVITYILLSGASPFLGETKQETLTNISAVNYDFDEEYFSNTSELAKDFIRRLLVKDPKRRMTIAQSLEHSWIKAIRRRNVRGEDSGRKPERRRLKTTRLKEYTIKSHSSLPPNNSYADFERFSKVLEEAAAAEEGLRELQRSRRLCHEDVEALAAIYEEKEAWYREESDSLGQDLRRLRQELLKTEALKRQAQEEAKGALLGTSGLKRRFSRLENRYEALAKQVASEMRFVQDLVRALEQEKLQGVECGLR

Compound `C=CC(=O)Nc1ccc(C(=O)Nc2[nH]nc3c2CN(C(=O)N[C@H](CN(C)C)c2ccccc2)C3(C)C)cc1` has a % of engagement [1] of -5.3%.
In the case of `Cc1cc(F)c(C(=O)Nc2cccc(-c3nncn3C(C)C)n2)cc1-n1cnc(C2CC2)c1`, the % of control [2] is reported as 100%.
In the case of `Nc1cnc(N2CCc3cc(S(=O)(=O)Nc4c(F)cc(Cl)cc4F)cc(N4CCCC4=O)c32)nc1` [TP-020n], the % of control [3] is reported as 83%.
`Cn1cc(-n2cnc3c(NCc4nc5cc(Cl)c(Cl)cc5[nH]4)nc(N4CCOCC4)nc32)cn1` gave a % of inhibition [4] of -25.5%, a % of inhibition [5] of 9.61% and a % of inhibition [6] of -20.9%. It also gave a % of inhibition [7] of -6.81%, a % of inhibition [8] of -18.2% and a % of inhibition [9] of -20.6%. For the same compound, the % of inhibition [10] was 1.44%, the % of inhibition [11] was -40.6% and the % of inhibition [12] was -40.5%.
In the case of `Cc1cc(CN)cc(C)c1-c1ncn(C)c1-c1cncn1C`, the dTM [13] is reported as -1.11 K.
In the case of `C=CC(=O)Nc1cccc(C(=O)Nc2ccc(Nc3cc(-c4[nH]c(SC)nc4C)ccn3)cc2)c1`, the % of control ([14]; at 1 µM) is reported as 96%, the % of control ([14]; at 5 µM) is reported as 82% and the % of control ([15]; at 1 µM) is reported as 110%. It also gave a % of control ([15]; at 5 µM) of 113%.
Compound `N#Cc1cccc(-c2c[nH]c3ncnc(N4CCOCC4)c23)c1` has a % of control [16] of 83%.
Work on `O[C@H]1CC[C@H](Nc2ncc3nc(Nc4c(F)cc(F)cc4F)n([C@H]4CCOC4)c3n2)CC1` yielded a % of control [17] of 88%.
Work on `CN(C)CCOc1ccc(-c2nc(-c3ccncc3)c(-c3ccc4c(c3)CC/C4=N\O)[nH]2)cc1` yielded a % of control [18] of 62%.
In the case of `CCN(CC)CCCCNc1ncc2cc(-c3cc(OC)cc(OC)c3)c(NC(=O)NC(C)(C)C)nc2n1`, the % of control [19] is reported as 100%.
For `CCC(=O)N1CCN(c2ccc(-n3c(=O)ccc4cnc5ccc(-c6cnc7ccccc7c6)cc5c43)cc2C(F)(F)F)CC1`, the % of control [20] was 100%.
